Structures can show the parent of a compound that is named as a salt.
Assays:
sigma-2 receptors = target: T1, sigma-2 receptors (Rattus norvegicus, UniProt Q5U3Y7); test: sigma-2 receptor radioligand binding
T1 sequence (Q5U3Y7 1-176): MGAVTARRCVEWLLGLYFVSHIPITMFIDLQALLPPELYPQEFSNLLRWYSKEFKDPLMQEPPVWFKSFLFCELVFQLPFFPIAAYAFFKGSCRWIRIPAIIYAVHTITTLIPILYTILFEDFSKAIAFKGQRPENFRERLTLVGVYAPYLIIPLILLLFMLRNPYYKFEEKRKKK

σ-1 = conditions: quantity type not given; cited from earlier work
σ-2 = conditions: quantity type not given; cited from earlier work

SMILES | σ-1/σ-2 selectivity ratio (sigma-2 receptors) | σ-1 affinity (σ-1) | σ-2 affinity (σ-2) [nM]
Fc1ccc(N2CCN(CCCCn3ccc4ccccc43)CC2)cc1 [4b, 1-(4-(4-(4-Fluorophenyl)piperazin-1-yl)butyl)indole oxalate] | 5 |  | 
COc1cc2c(cc1OC)CN(CCCCNC(=O)c1cc(Br)cc(OC)c1OC)CC2 [5-bromo-N-(4-(6,7-dimethoxy-3,4-dihydroisoquinolin-2(1H)-yl)butyl)-2,3-dimethoxybenzamide] |  | 12,900 nM | 8.2
Fc1ccc(-n2cc(CCCCN3CCC4(CC3)OCc3ccccc34)c3ccccc32)cc1 [Siramesine] |  | 17 nM | 

Source: paper PMC3272488 (European Journal of Medicinal Chemistry, 2011)
